Test results from article PMC7825302, “Tetraoctylammonium, a Long Chain Quaternary Ammonium Blocker, Promotes a Noncollapsed, Resting-Like Inactivated State in KcsA” (International Journal of Molecular Sciences, 2021).
Changes are numbered by the printed parent chain. Values belong to the molecule of their own block, whether it stands above or below them.

How the values were obtained:
KcsA = biological target: T1, KcsA (Streptomyces lividans, UniProt P0A334); experiment: thermal denaturation (intrinsic fluorescence) titration with fitted KD; pH […] (pH […]); format: binding
T1 construct: wild-type (WT) KcsA, homotetramer, His-tag purified from E. coli, in DDM detergent
T1 sequence (P0A334 1-160): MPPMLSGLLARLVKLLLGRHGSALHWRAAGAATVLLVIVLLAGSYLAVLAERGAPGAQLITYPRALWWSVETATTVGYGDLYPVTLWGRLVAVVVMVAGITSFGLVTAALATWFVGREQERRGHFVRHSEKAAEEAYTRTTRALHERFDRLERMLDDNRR

W67 KcsA = biological target: T2, W67 KcsA (Streptomyces lividans, UniProt P0A334, W113F/W26F/W68F/W87F); experiment: thermal denaturation titration with fitted KD; pH […] (pH […]); effect supported by homo-FRET; format: binding
T2 construct: quadruple mutant KcsA with a single Trp (W67) per subunit, homotetramer, His-tag purified from E. coli, in DDM detergent

[1] = biological target: T3, wild-type KcsA potassium channel (Streptomyces lividans), P0A334; experiment: SDS-PAGE; 12% SDS-PAGE of the detergent-solubilised (DDM) channel at room temperature, 10 mM Na+, pH 7.0 and pH 4.0, without or with 1 or 100 µM TOA+; conditions: remark: other sources report otherwise
T3 chain: T1 sequence (P0A334 1-160)

[2] = biological target: the molecule itself; experiment: FRET or BRET; homo-FRET among the W67 residues of the subunits, from steady-state and time-resolved fluorescence anisotropy; 5 µM protein in 5 mM DDM, pH 7.0 or pH 4.0, K+ titrated, with or without 100 µM TOA+

T2 sequence (P0A334 whole entry W26F/W68F/W87F/W113F): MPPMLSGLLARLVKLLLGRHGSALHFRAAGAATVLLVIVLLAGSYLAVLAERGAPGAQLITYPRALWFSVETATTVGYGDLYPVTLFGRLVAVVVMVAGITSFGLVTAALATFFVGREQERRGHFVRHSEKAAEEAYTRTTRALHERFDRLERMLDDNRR

Molecule: CCCCCCCC[N+](CCCCCCCC)(CCCCCCCC)CCCCCCCC [tetraoctylammonium]
Kd (KcsA): 180 nM
Kd (W67 KcsA): 107 nM

stoichiometry N [1]: 4
B1: wild-type KcsA potassium channel, P0A334 1-160 (natural protein)
chain: T1 sequence (P0A334 1-160)

B2: W67 KcsA (quadruple mutant W26, 68, 87, 113F KcsA with a single tryptophan, W67, per subunit) (natural protein, Streptomyces lividans, UniProt P0A334 1-160, looked up)
chain: T1 sequence (P0A334 1-160) with W26F, W68F, W87F, W113F
notes: KcsA, prokaryotic K+ channel from Streptomyces lividans, native Trp residues 26, 68, 87 and 113 mutated to Phe; also called KcsA W26, 68, 87, 113F; W67 mutant channel
binding result [2]: binds
